Structures are written as SMILES. Like-named read-outs stand apart in the source and are kept apart here.

In patent US12655139B2, “Isoxazolidines as RIPK1 inhibitors and use thereof” (SANOFI, priority 2020, dated 2026) one finds IC50 data, which are given here for 40 molecules.

One assay relates to U937 cells. The experiment in a line: Cellular assay in U937 cells on cell death (necroptosis), TNFα/zVAD.fmk. In kind it is cell-based. The method in brief: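 U937 cells with 100 ng/ml TNFα plus 50 μM zVAD.fmk (pre-addition suspension levels) received 10 compound concentrations (10 μM–0.26 nM or 1 μM–0.07 nM) for 18–24 h at 37 °C. Live cells were read by MTS formazan absorbance at 490 nm after 4 h. % inhibition is relative to the maximal value without TNFα/zVAD.fmk.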

Assay [1] addresses T1, hRIPK1 (aa 1-375) fusion protein (Homo sapiens, UniProt Q13546).
T1 construct: hRIPK1 (aa 1-375) fusion protein
T1 sequence (Q13546 1-375): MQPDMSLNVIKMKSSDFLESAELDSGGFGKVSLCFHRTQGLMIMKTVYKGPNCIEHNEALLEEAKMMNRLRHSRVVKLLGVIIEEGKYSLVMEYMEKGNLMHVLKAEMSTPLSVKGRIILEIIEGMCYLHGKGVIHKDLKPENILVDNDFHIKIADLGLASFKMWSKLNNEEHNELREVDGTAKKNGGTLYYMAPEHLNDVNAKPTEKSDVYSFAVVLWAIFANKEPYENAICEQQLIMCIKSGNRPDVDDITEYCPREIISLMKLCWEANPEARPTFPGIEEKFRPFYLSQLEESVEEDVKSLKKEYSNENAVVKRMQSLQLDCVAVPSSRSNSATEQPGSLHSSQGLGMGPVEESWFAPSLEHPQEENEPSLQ
The experiment in a line: ADP-Glo kinase assay, RIPK1 autophosphorylation. In kind it is biochemical.

Setting [2] is: Homo sapiens, U-937, Table 2, read-out: U937 IC50.

With `N#Cc1cc([C@@H]2CCON2C(=O)C2CCN(c3ncc(F)c(C(N)=O)n3)CC2)co1` [Ex. 167], the IC50 with U937 cells (setting [2]) came to 0.048 µM; in assay [1] (Table 1), 31.1 nM.

On to `N#Cc1ccnc(N2CCC(C(=O)N3OCC[C@H]3c3cncnc3)CC2)c1` [Ex. 065], for which the values for the IC50 (in the assay with U937 cells (setting [2]); in assay [1] (Table 1)) were 0.612 µM and 65.6 nM, respectively.

In the case of `N#Cc1cncc([C@@H]2CCON2C(=O)C2(F)CCN(c3ncc(F)c(C(N)=O)n3)CC2)c1` [Ex. 059], the IC50 in the assay on U937 cells (setting [2]) stood at 0.0507 µM; in assay [1] (Table 1) it was 20.8 nM.

For the molecule `N#Cc1nc(N2CCC(C(=O)N3OCC[C@H]3c3cnccn3)CC2)ncc1F` [compound 120, 5-fluoro-2-[4-[(3S)-3-pyrazin-2-ylisoxazolidine-2-carbonyl]-1-piperidyl]pyrimidine-4-carbonitrile], the IC50 with U937 cells (setting [2]) was found to be 0.00169 µM; in assay [1] (Table 1), 18.8 nM.

Consider `Cn1cc(C2CCON2C(=O)C2CCN(c3nccc(C#N)n3)CC2)cn1` (racemic) [Ex. 047*], for which the figures for the IC50 (with U937 cells (setting [2]); in assay [1] (Table 1)) were 0.549 µM and 64.9 nM, respectively.

In the case of `N#Cc1cncc([C@@H]2CCON2C(=O)C2CCN(c3nccc(C(N)=O)n3)CC2)c1` [compound 4], the IC50 with U937 cells (setting [2]) amounted to 0.0221 µM; in assay [1] (Table 1), 23.8 nM.

Turning to `N#Cc1cncc([C@@H]2CCON2C(=O)C2CCN(c3ncnc(C(N)=O)c3F)CC2)c1` [Ex. 073], the IC50 with U937 cells (setting [2]) turned out to be 0.103 µM; in assay [1] (Table 1), 11 nM.

On to `NC(=O)c1cncc(C2CCON2C(=O)C2CCN(c3cc(C(N)=O)ncn3)CC2)c1` (racemic) [Ex. 030*], for which the IC50 in the assay with U937 cells (setting [2]) amounted to 4.17 µM; in assay [1] (Table 1), 247 nM.

With `N#Cc1cncc([C@@H]2CCON2C(=O)C2CCN(c3ncc(F)c(N)n3)CC2)c1` [Ex. 039], the IC50 with U937 cells (setting [2]) was 0.18 µM; in assay [1] (Table 1), 50.1 nM.

With `CSc1nccc(N2CCC(C(=O)N3OCC[C@H]3c3cncc(C#N)c3)CC2)n1` [compound 146, 5-[(3S)-2-[1-(2-methylsulfanylpyrimidin-4-yl)piperidine-4-carbonyl]isoxazolidin-3-yl]pyridine-3-carbonitrile], the IC50 is 0.229 µM with U937 cells (setting [2]) and 45.8 nM in assay [1] (Table 1).

For the molecule `COc1nc(N2CCC(C(=O)N3OCC[C@H]3c3cncc(C#N)c3)CC2)ncc1F` [Ex. 114], the IC50 in the assay with U937 cells (setting [2]) came to 0.00785 µM; in assay [1] (Table 1), 14 nM.

With `COC(=O)c1ccnc(N2CCC(C(=O)N3OCC[C@H]3c3cncc(C#N)c3)CC2)n1` [Ex. 010, Methyl 2-[4-[(3S)-3-(5-cyano-3-pyridyl)isoxazolidine-2-carbonyl]-1-piperidyl]pyrimidine-4-carboxylate], the IC50 was 0.21 µM in the assay with U937 cells (Table 2, listed as 10, read-out: U937 IC50) and 12 nM in assay [1] (Table 1).

On to `Cc1cnc([C@@H]2CCON2C(=O)C2CCN(c3nccc(C(N)=O)n3)CC2)cn1` [Ex. 087], for which the IC50 in the assay with U937 cells (setting [2]) was 0.0505 µM; in assay [1] (Table 1), 9.55 nM.

With `N#Cc1cncc([C@@H]2CCON2C(=O)C2CCN(c3ccnc(Br)n3)CC2)c1` [Ex. 157], the values for the IC50 (in the assay with U937 cells (setting [2]); in assay [1] (Table 1)) were 0.114 µM and 43.9 nM, respectively.

In the case of `N#Cc1ccc([C@@H]2CCON2C(=O)C2CCN(c3ncc(F)c(C(N)=O)n3)CC2)nc1` [Ex. 106], the IC50 with U937 cells (setting [2]) was determined as 0.548 µM; in assay [1] (Table 1) it was 42.9 nM.

`N#Cc1cncc([C@@H]2CCON2C(=O)[C@H]2CCN(c3nccc(C(N)=O)n3)C[C@@H]2F)c1` [Ex. 093]: the IC50 was found to be 0.0193 µM with U937 cells (setting [2]) and 4.16 nM in assay [1] (Table 1).

On to `Cc1ccc([C@@H]2CCON2C(=O)C2CCN(c3ncc(C)c(C(N)=O)n3)CC2)s1` [compound 182, 5-methyl-2-[4-[(3S)-3-(5-methyl-2-thienyl)isoxazolidine-2-carbonyl]-1-piperidyl]pyrimidine-4-carboxamide], for which the values for the IC50 (in the assay on U937 cells (setting [2]); in assay [1] (Table 1)) were 0.00701 µM and 15.6 nM, respectively.

Regarding `NC(=O)c1ccnc(N2CCC(C(=O)N3OCCC3c3cncc(CO)c3)CC2)n1` (racemic) [Ex. 025*, 2-[4-[3-[5-(Hydroxymethyl)-3-pyridyl]isoxazolidine-2-carbonyl]-1-piperidyl]pyrimidine-4-carboxamide], the IC50 in the assay on U937 cells (setting [2]) was found to be 0.498 µM; in assay [1] (Table 1) it was 51.6 nM.

In the case of `Cc1cnc([C@@H]2CCON2C(=O)C2CCN(c3ncc(F)c(C(N)=O)n3)CC2)cn1` [compound 90, 5-fluoro-2-[4-[(3S)-3-(5-methylpyrazin-2-yl)isoxazolidine-2-carbonyl]-1-piperidyl]pyrimidine-4-carboxamide], the IC50 with U937 cells (setting [2]) worked out at 0.0381 µM; in assay [1] (Table 1) it was 12.6 nM.

Regarding `Cc1ncc([C@@H]2CCON2C(=O)C2CCN(c3nccc(C(N)=O)n3)CC2)cc1C#N` [Ex. 081], the values for the IC50 (in the assay with U937 cells (setting [2]); in assay [1] (Table 1)) were 0.0297 µM and 15.7 nM, respectively.

`Cc1cncc([C@@H]2CCON2C(=O)C2CCN(c3nccc(C#N)n3)CC2)c1` [compound 131, (S)-2-(4-(3-(5-methylpyridin-3-yl)isoxazolidine-2-carbonyl)piperidin-1-yl)pyrimidine-4-carbonitrile]: the results for the 50% inhibitory concentration (IC50) (in the assay with U937 cells (setting [2]); in assay [1] (Table 1)) were 0.034 µM and 23.9 nM, respectively.

Consider `N#Cc1cc([C@@H]2CCON2C(=O)C2CCN(c3nccc(C(N)=O)n3)CC2)co1` [Ex. 171], for which the values for the IC50 (with U937 cells (setting [2]); in assay [1] (Table 1)) were 0.0858 µM and 51.9 nM, respectively.

`N#Cc1cncc([C@@H]2CCON2C(=O)C2CCN(c3ncc(F)c(C#N)n3)CC2)c1` [Ex. 111]: the IC50 in the assay on U937 cells (setting [2]) is 0.0116 µM; in assay [1] (Table 1), 28.2 nM.

Consider `Cc1c(F)cncc1[C@@H]1CCON1C(=O)C1CCN(c2cc(C#N)ncn2)CC1` [compound 143, (S)-6-(4-(3-(5-fluoro-4-methylpyridin-3-yl)isoxazolidine-2-carbonyl)piperidin-1-yl)pyrimidine-4-carbonitrile], for which the IC50 came to 1.76 µM in the assay on U937 cells (setting [2]) and 323 nM in assay [1] (Table 1).

In the case of `Nc1nc(Cl)nc(N2CCC(C(=O)N3OCC[C@H]3c3cnccn3)CC2)n1` [Ex. 184], the IC50 with U937 cells (setting [2]) was 0.00179 µM; in assay [1] (Table 1) it was 3.26 nM.

As to `Cc1cnc(N2CCC(C(=O)N3OCC[C@H]3c3cncc(C#N)c3)CC2)nc1C(N)=O` [Ex. 053], the IC50 with U937 cells (setting [2]) came to 0.0561 µM; in assay [1] (Table 1), 11.7 nM.

On to `O=C(O)c1nc(Cl)ncc1N1CCC(C(=O)N2OCC[C@H]2c2cnccn2)CC1` [Ex. 164], for which the IC50 worked out at 1.97 µM in the assay on U937 cells (setting [2]) and 17500 nM in assay [1] (Table 1).

As for `NC(=O)c1ccnc(N2CCC(C(=O)N3OCCC3C3CCCOC3)CC2)n1` (racemic) [Example 024, 2-[4-[3-Tetrahydropyran-3-ylisoxazolidine-2-carbonyl]-1-piperidyl]pyrimidine-4-carboxamide], the values for the half-inhibitory concentration (IC50) (in the assay with U937 cells (setting [2]); in assay [1] (Table 1)) were 0.834 µM and 156 nM, respectively.

As to `C[S+]([O-])c1nc(N2CCC(C(=O)N3OCC[C@H]3c3cncc(C#N)c3)CC2)ncc1F` (some centres unmarked) [Ex. 104], the IC50 in the assay on U937 cells (setting [2]) was found to be 0.736 µM; in assay [1] (Table 1), 13.4 nM.

For the molecule `N#Cc1cncc([C@@H]2CCON2C(=O)C2(F)CCN(c3nccc(C(N)=O)n3)CC2(F)F)c1` (some centres unmarked) [Ex. 115], the IC50 with U937 cells (setting [2]) stood at 0.0627 µM; in assay [1] (Table 1), 24.7 nM.

As to `CNC(=O)c1cncc(C2CCON2C(=O)C2CCN(c3nccc(C#N)n3)CC2)c1` (racemic) [Example 042, 5-[2-[1-(4-cyanopyrimidin-2-yl)piperidine-4-carbonyl]isoxazolidin-3-yl]-N-methyl-pyridine-3-carboxamide], the IC50 was found to be 6.01 µM in the assay on U937 cells (setting [2]) and 193 nM in assay [1] (Table 1).

Regarding `N#Cc1cncc([C@@H]2CCON2C(=O)C2CCN(c3ncc(F)c(C(N)=O)n3)CC2)c1` [Ex. 068], the IC50 came to 0.003 µM in the assay with U937 cells (Homo sapiens, U-937, Key compound table 4, read-out: U937 IC50 (uM) Mean) and 11 nM in assay [1] (Key compound table 4).

`N#Cc1cc(N2CCC(C(=O)N3OCCC3c3cncc(F)c3)CC2)ncn1` (racemic) [Ex. 049*]: the values for the IC50 (with U937 cells (setting [2]); in assay [1] (Table 1)) were 0.0411 µM and 9.99 nM, respectively.

Consider `CC(C)(C)OC(=O)N1CC(NC(=O)c2ccnc(N3CCC(C(=O)N4OCC[C@H]4c4cncc(C#N)c4)CC3)n2)C1` [compound 78, Tert-butyl 3-[[2-[4-[(3S)-3-(5-cyano-3-pyridyl)isoxazolidine-2-carbonyl]-1-piperidyl]pyrimidine-4-carbonyl]amino]azetidine-1-carboxylate], for which the IC50 with U937 cells (setting [2]) was 0.316 µM; in assay [1] (Table 1), 52.9 nM.

`N#Cc1cncc([C@@H]2CCON2C(=O)C2CCN(c3ncc(F)c(C(N)=O)n3)CC2F)c1` (some centres unmarked) [Ex. 154]: the IC50 in the assay with U937 cells (Table 2, read-out: U937 IC50) came out at 0.0388 µM; in assay [1] (Table 1), 21.9 nM.

Consider `N#Cc1cncc([C@@H]2CCON2C(=O)C2CCN(c3ncc(F)c(C(N)=O)n3)CC2)n1` [compound 119], for which the figures for the IC50 (with U937 cells (setting [2]); in assay [1] (Table 1)) were 0.00555 µM and 21.1 nM, respectively.

On to `Cc1cc([C@@H]2CCON2C(=O)C2CCN(c3nccc(C#N)n3)CC2)co1` [compound 162, (S)-2-(4-(3-(5-methylfuran-3-yl)isoxazolidine-2-carbonyl)piperidin-1-yl)pyrimidine-4-carbonitrile], for which the figures for the IC50 (in the assay with U937 cells (setting [2]); in assay [1] (Table 1)) were 0.00541 µM and 20.1 nM, respectively.

Take `Cc1cnc(N2CCC(C(=O)N3OCC[C@H]3c3cncc(F)c3)CC2)nc1C(N)=O` [Ex. 098]: the IC50 in the assay on U937 cells (setting [2]) was found to be 0.0325 µM; in assay [1] (Table 1), 13.7 nM.

On to `NC(=O)c1ccnc(N2CCC(C(=O)N3OCCC3c3cncc(F)c3)CC2)n1` (single isomer, unassigned) [Ex. 069], for which the IC50 is > 10 µM with U937 cells (setting [2]) and > 33000 nM in assay [1] (Table 1).

Regarding `N#Cc1cncc([C@@H]2CCON2C(=O)C2CCN(c3cc(C(N)=O)ncn3)CC2)c1` [Ex. 001], the 50% inhibitory concentration (IC50) in the assay on U937 cells (setting [2]) is 0.133 µM; in assay [1] (Table 1), 32.6 nM.
